In patent publication US20060247303A1, “7H-dibenzo[b,g][1,5]dioxocin-5-one derivatives and use thereof” (BAYER HEALTHCARE AG, priority 2002, published 2006):

Each molecule was assayed against T1, CETP (Homo sapiens, UniProt P11597) (assay: CETP fluorescence test). Details: CETP from human plasma, transfer of fluorescent cholesterol ester between liposomes, 37° C., 4 hours; read-out: IC50 [nM] Fluor. test.
T1 construct: enriched CETP fraction, obtained from human plasma by means of hydrophobic chromatography; from tissue; host or cells: human plasma
T1 sequence (P11597 18-493): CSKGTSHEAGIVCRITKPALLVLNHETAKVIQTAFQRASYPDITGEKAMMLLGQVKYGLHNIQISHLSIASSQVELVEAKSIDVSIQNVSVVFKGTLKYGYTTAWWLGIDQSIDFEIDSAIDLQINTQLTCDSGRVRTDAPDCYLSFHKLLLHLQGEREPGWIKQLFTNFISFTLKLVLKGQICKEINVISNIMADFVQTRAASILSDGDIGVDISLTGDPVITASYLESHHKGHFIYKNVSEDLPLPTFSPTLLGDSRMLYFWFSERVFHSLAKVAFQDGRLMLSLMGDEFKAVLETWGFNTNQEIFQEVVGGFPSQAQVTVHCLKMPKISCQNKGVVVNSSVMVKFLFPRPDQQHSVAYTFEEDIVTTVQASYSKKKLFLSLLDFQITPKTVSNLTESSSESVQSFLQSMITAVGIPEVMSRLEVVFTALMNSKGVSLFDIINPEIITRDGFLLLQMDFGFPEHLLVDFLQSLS
Format: biochemical
Method: CETP is obtained in partially purified form from human plasma by differential centrifugation and column chromatography and used for the test. To this end, human plasma is adjusted to a density of 1.21 g per ml using NaBr and centrifuged at 4° C. at 50 000 rpm for 18 h. The bottom fraction (d>1.21 g/ml) is applied to a Sephadex® Phenyl-Sepharose 4B (Pharmacia) column, washed with 0.15 M NaCl/0.001 M tris HCl pH 7.4 and then eluted with distilled water. The CETP-active fractions are pooled, dialysed against 50 mM sodium acetate pH 4.5 and applied to a CM-Sepharose® column (Pharmacia). The mixture is then eluted using a linear gradient (0-1 M NaCl). The pooled CETP fractions are dialysed against 10 mM Tris HCl pH 7.4 and then further purified by chromatography on a Mono Q® column (Pharmacia).
Measurement of the CETP-catalysed transfer of a fluorescent cholesterol ester between liposomes—modified according to the procedure of Bisgaier et al., J. Lipid Res. 34, 1625 (1993):
For the production of the donor liposomes, 1 mg of cholesteryl 4,4-difluoro-5,7-dimethyl-4-bora-3a,4a-diaza-s-indacene-3-dodecanoate (cholesteryl BODIPY® FL C12, Molecular Probes) is dissolved in 600 μl of dioxane with 5.35 mg of triolein and 6.67 mg of phosphatidylcholine with gentle warming in an ultrasonic bath and this solution is added very slowly with ultrasonication to 63 ml of 50 mM tris/HCl, 150 mM NaCl, 2 mM EDTA buffer pH 7.3 at RT.
The suspension is then ultrasonicated under an N2 atmosphere for 30 minutes in the Braukson ultrasonic bath at about 50 watts, the temperature being kept at about 20° C.
The acceptor liposomes are obtained analogously from 86 mg of cholesteryl oleate, 20 mg of triolein and 100 mg of phosphatidylcholine dissolved in 1.2 ml of dioxane and 114 ml of above buffer by ultrasonication at 50 watts (20° C.) for 30 minutes.
For testing, a test mix consisting of 1 part of above buffer, 1 part of donor liposomes and 2 parts of acceptor liposomes is used.
80 μl of test mix are treated with 1-3 μg of enriched CETP fraction, obtained from human plasma by means of hydrophobic chromatography, and 2 μl of the substance to be investigated in DMSO and incubated at 37° C. for 4 hours.
The change in the fluorescence at 485/535 nm is a measure of the CE transfer; the inhibition of the transfer in comparison to the control batch without substance is determined.
In the case of `COc1c([C@@H](O)CC(C)C)ccc2c1C(=O)OC(C)c1cc(C)cc(OCCC(C)C)c1O2` (mixture of isomers) [Example A-80, [(1S)-1-Hydroxy-3-methylbutyl]-11-(isopentyloxy)-4-methoxy-7,9-dimethyl-5H,7H-dibenzo[b,g][1,5]dioxocin-5-one], the IC50 is reported as 5000 nM.
For `COc1c([C@@H](O)CC(C)C)ccc2c1C(=O)OCc1c(C)c(C)c(C)c(OC(=O)C(C)(C)C)c1O2` [Example A-35], the IC50 was 200 nM.
With `COc1c([C@@H](O)CC(C)C)ccc2c1C(=O)OCc1cc(C)cc(OS(=O)(=O)C(C)C)c1O2` [Example A-42, 9-[(1S)-1-Hydroxy-3-methylbutyl]-8-methoxy-3-methyl-7-oxo-5H,7H-dibenzo[b,g]-[1,5]-dioxocin-1-yl 2-propanesulphonate] the IC50 was 700 nM.
`COc1c([C@@H](O)CC(C)C)ccc2c1C(=O)OCc1c(Cl)c(C)c(Cl)c(OC(=O)C(C)(C)C)c1O2` [Example A-47] was tested, and the IC50 was 200 nM.
With `COc1c(C(O)CC(C)(C)C)ccc2c1C(=O)OCc1cc(C)cc(OCCC(C)C)c1O2` (centres unmarked) [Example A-55, 3-(1-Hydroxy-3,3-dimethylbutyl)-11-(isopentyloxy)-4-methoxy-9-methyl-5H,7H-dibenzo[b,g][1,5]dioxocin-5-one] the IC50 was 1500 nM.
`COc1c(C(O)CC(C)C)ccc2c1C(=O)OCc1cc(C)cc(C#CCC(C)C)c1O2` (centres unmarked) [Example A-63] gave an IC50 of 2000 nM.
`COc1c(C(O)CC(C)C)ccc2c1C(=O)OCc1c(F)c(C)cc(OCCC(C)C)c1O2` (centres unmarked) [Example A-64] gave an IC50 of 500 nM.
Work on `COc1c(C(O)CC(C)C)ccc2c1C(=O)OCc1cc(C)cc(CCC3CCCC3)c1O2` (centres unmarked) [Example A-70, 11-(2-Cyclopentylethan-1-yl)-3-(1-hydroxy-3-methylbutyl)-4-methoxy-9-methyl-5H,7H-dibenzo[b,g][1,5]dioxocin-5-one] yielded an IC50 of 2000 nM.
`COc1c([C@@H](O)CC(C)C)ccc2c1C(=O)OCc1c(C#N)c(C)cc(OCCC(C)C)c1O2` [Example A-78, 9-[(1S)-1-Hydroxy-3-methylbutyl]-1-(isopentyloxy)-8-methoxy-3-methyl-7-oxo-5H,7H-dibenzo[b,g][1,5]dioxocin-4-carbonitrile] showed an IC50 of 3000 nM.
Work on `COc1c([C@@H](O)CC(C)C)ccc2c1C(=O)OCc1c(Br)c(C)c(Br)c(OCCCC(F)(F)F)c1O2` [Example B-1, 8,10-Dibromo-3-[(1S)-1-hydroxy-3-methylbutyl]-4-methoxy-9-methyl-11-(4,4,4-trifluorobutoxy)-5H,7H-dibenzo[b,g][1,5]dioxocin-5-one] yielded an IC50 of 1000 nM.
With `COc1c([C@@H](O)CC(C)C)ccc2c1C(=O)OCc1cc(C)cc(OCC3CC4C=CC3C4)c1O2` (stereo partly drawn) [Example B-5, 3-[(1S)-1-Hydroxy-3-methylbutyl]-4-methoxy-9-methyl-11-(bicyclo[2.2.1]hept-5-en-2-ylmethoxy)-5H,7H-dibenzo[b,g][1,5]dioxocin-5-one] the IC50 was 1500 nM.
`COc1c([C@@H](O)CC(C)C)ccc2c1C(=O)OCc1cc(C)cc(OC(=O)C3(c4cccc(F)c4)CCCCC3)c1O2` [Example B-8] gave an IC50 of 1000 nM.
`COc1c([C@@H](O)CC(C)C)ccc2c1C(=O)OCc1cc(C)cc(OC(=O)C3(C)CC3(F)F)c1O2` (some centres unmarked) [Example B-22] was tested, and the IC50 was 700 nM.
Work on `COc1c([C@@H](O)CC(C)C)ccc2c1C(=O)OCc1c(Cl)c(C)cc(OC(=O)C(C)(C)CF)c1O2` [Example B-42] yielded an IC50 of 300 nM.
`COc1c([C@@H](O)CC(C)C)ccc2c1C(=O)OCc1c(Cl)c(C)c(Br)c(OC(=O)C3CCC3)c1O2` [Example B-50] gave an IC50 of 250 nM.
Work on `COc1c([C@@H](O)CC(C)C)ccc2c1C(=O)OCc1c(Cl)c(C)c(Cl)c(OC(=O)N3CC4CCC(C3)O4)c1O2` [Example B-165] yielded an IC50 of 300 nM.
`COc1c([C@@H](O)CC(C)C)ccc2c1C(=O)OCc1cc(C(F)F)cc(OCCC(C)C)c1O2` [Example B-176, 9-(Difluoromethyl)-3-[(1S)-1-hydroxy-3-methylbutyl]-11-(isopentyloxy)-4-methoxy-5H,7H-dibenzo[b,g][1,5]dioxocin-5-one] showed an IC50 of 5000 nM.
For `COc1c([C@@H](O)CC(C)C)ccc2c1C(=O)OCc1c(Br)c(C)c(Cl)c(OC(=O)[C@@]3(C)C[C@H]4CC[C@@H]3C4)c1O2` [Example C-21], the IC50 was 70 nM.
`COc1c([C@@H](O)CC(C)C)ccc2c1C(=O)OCc1cc(C)c(Cl)c(OC(=O)[C@@]3(C)C[C@H]4CC[C@@H]3C4)c1O2` [Example C-22] gave an IC50 of 75 nM.
Molecule `COc1c([C@@H](O)CC(C)C)ccc2c1C(=O)OCc1c(Cl)c(C)c(Br)c(OC(=O)C3(C)C4CCC3CC4)c1O2` (some centres unmarked) [Example C-37] has an IC50 of 60 nM.
In the case of `COc1c([C@@H](O)CC(C)C)ccc2c1C(=O)OCc1c(Cl)c(C)c(C)c(OC(=O)[C@@]3(C)C[C@H]4CC[C@@H]3C4)c1O2` [Example C-47], the IC50 is reported as 50 nM.
Work on `COc1c(C(O)CC(C)(C)C)ccc2c1C(=O)OCc1c(Cl)c(C)c(C3CC3)c(OC(=O)C3(C)C4CCC3CC4)c1O2` (centres unmarked) [Example C-62] yielded an IC50 of 60 nM.
`CCc1c(C)c(Cl)c2c(c1OC(=O)C1(C)C3CCC1CC3)Oc1ccc([C@@H](O)CC(C)C)c(OC)c1C(=O)OC2` (some centres unmarked) [Example C-65] showed an IC50 of 50 nM.
With `COCc1c(C)c(Cl)c2c(c1OC(=O)C1(C)C3CCC1CC3)Oc1ccc([C@@H](O)CC(C)C)c(OC)c1C(=O)OC2` (some centres unmarked) [Example C-66] the IC50 was 50 nM.
With `COc1c([C@@H](O)CC(C)C)ccc2c1C(=O)OCc1c(Cl)c(C)c(Br)c(OC(=O)C3(C)CCCCC3)c1O2` [Example C-67] the IC50 was 90 nM.
`COc1c([C@@H](O)CC(C)C)ccc2c1C(=O)OCc1c(C)c(C)c(C)c(OC(=O)C3(C)C4CCC3CC4)c1O2` (some centres unmarked) [Example C-82] gave an IC50 of 60 nM.
`CCc1c(C)cc2c(c1OC(=O)[C@@]1(C)C[C@H]3CC[C@@H]1C3)Oc1ccc([C@@H](O)CC(C)C)c(OC)c1C(=O)OC2` [Example C-91] was tested, and the IC50 was 40 nM.
For `COc1c([C@@H](O)CC(C)C)ccc2c1C(=O)OC(C)c1cc(C)cc(OC(=O)C3(C)C4CCC3CC4)c1O2` (some centres unmarked) [Example C-120], the IC50 was 100 nM.
For `COc1c(C(O)CC(C)C)ccc2c1C(=O)OCc1c(F)c(C)c(C)c(OC(=O)C3(C)C4CCC3CC4)c1O2` (centres unmarked) [Example C-128], the IC50 was 55 nM.
